Reference: patent publication US10988449B2, “Isoxazole derivatives as nuclear receptor agonists and uses thereof” (IL DONG PHARMACEUTICAL CO., LTD., priority 2017, dated 2021)

Target: T1, human FXR (Homo sapiens, UniProt Q96RI1)
T1 construct: expressed in transfected cells
T1 sequence (Q96RI1 1-486): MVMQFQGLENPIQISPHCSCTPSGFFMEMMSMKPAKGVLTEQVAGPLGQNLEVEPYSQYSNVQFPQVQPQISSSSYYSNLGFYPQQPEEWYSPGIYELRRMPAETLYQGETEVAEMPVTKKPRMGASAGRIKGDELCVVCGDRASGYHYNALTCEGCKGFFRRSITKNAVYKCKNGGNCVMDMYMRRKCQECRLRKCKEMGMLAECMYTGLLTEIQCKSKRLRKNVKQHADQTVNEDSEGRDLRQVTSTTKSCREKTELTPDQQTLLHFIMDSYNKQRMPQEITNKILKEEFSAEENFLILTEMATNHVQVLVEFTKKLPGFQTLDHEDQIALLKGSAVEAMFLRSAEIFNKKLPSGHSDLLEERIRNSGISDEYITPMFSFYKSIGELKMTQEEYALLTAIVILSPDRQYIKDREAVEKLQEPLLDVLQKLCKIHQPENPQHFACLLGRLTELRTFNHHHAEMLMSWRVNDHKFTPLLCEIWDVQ
Assay: FXR reporter assay (cellular FXR activities)
Type: cell-based
Conditions: for EC50: FXR reporter cells, 24 hours incubation, luciferase, read-out: Reporter Cell EC50; for Emax: read-out: Emax (%) (GW4064 Emax = 100%)
Experimental: FXR reporter assay was performed to measure cellular FXR activities of the compounds in the present invention. FXR reporter cells with high expression level of human FXR were seeded into 96-well cell culture plates, and incubated for 1-2 hours at 37° C. under 5% CO2 atmosphere. The invented compounds diluted in DMSO with various concentrations were added to the 96-well cell culture plates, and they were incubated for 24 hours at 37° C. under 5% CO2 atmosphere. After incubation, we calculate EC50 by using luciferase substrate.

Q: How did the EC50 turn out when O=C(O)c1cc(C#Cc2ccc(OCc3c(-c4c(Cl)cccc4Cl)noc3C3CC3)cc2Cl)c2nc[nH]c2c1 [Compound I-90, 4-((2-chloro-4-((5-cyclopropyl-3-(2,6-dichlorophenyl)isoxazol-4-yl)methoxy)phenyl)ethynyl)-1H-benzo[d]imidazole-6-carboxylic acid] was run?
A: 200 to 1000 nM

Q: What about the Emax of the same molecule?
A: 75%

Q: Which EC50 does the source give for CC(C)(C)NCc1cc(C#Cc2ccc(OCc3c(-c4c(Cl)cccc4Cl)noc3C3CC3)cc2Cl)cc(C(=O)O)c1 [Compound I-48, 3-((tert-butylamino)methyl)-5-((2-chloro-4-((5-cyclopropyl-3-(2,6-dichlorophenyl)isoxazol-4-yl)methoxy)phenyl)ethynyl)benzoic acid] here?
A: 200 to 1000 nM

Q: And the Emax?
A: 81%

Q: With CCOC(=O)Nc1cc(C#Cc2ccc(OCc3c(-c4c(Cl)cccc4Cl)noc3C3CC3)cc2Cl)cc(C(=O)OC)c1 [Compound I-8, methyl 3-((2-chloro-4-((5-cyclopropyl-3-(2,6-dichlorophenyl)isoxazol-4-yl)methoxy)phenyl)ethynyl)-5-((ethoxycarbonyl)amino)benzoate] as the molecule, how does the EC50 read?
A: > 1000 nM

Q: What about the Emax of the same molecule?
A: 98%

Q: Which EC50 does the source give for O=C(O)c1cc(C#Cc2ccc(OCc3c(-c4c(Cl)cccc4Cl)noc3C3CC3)cc2Cl)cc(CNC2COC2)c1 [Compound I-51, 3-((2-chloro-4-((5-cyclopropyl-3-(2,6-dichlorophenyl)isoxazol-4-yl)methoxy)phenyl)ethynyl)-5-((oxetan-3-ylamino)methyl)benzoic acid] here?
A: 200 to 1000 nM

Q: What about the Emax of the same molecule?
A: 75%

Q: Which results are given for O=C(O)c1cccc(C#Cc2cc(Cl)c(OCc3c(-c4c(Cl)cccc4Cl)noc3C3CC3)cc2Cl)c1 [Compound I-68, 3-((2,5-dichloro-4-((5-cyclopropyl-3-(2,6-dichlorophenyl)isoxazol-4-yl)methoxy)phenyl)ethynyl)benzoic acid]?
A: EC50: > 1000 nM; Emax: 96%

Q: O=C(O)c1cccc(C#Cc2ccc(OCc3c(-c4ccccc4C(F)(F)F)noc3C3CC3)cc2Cl)c1 [Compound I-87, 3-((2-chloro-4-((5-cyclopropyl-3-(2-(trifluoromethyl)phenyl)isoxazol-yl)methoxy)phenyl)ethynyl)benzoic acid] was tested. Which EC50 did it give?
A: 200 to 1000 nM

Q: What about the Emax of the same molecule?
A: > 100%

Q: How did the EC50 turn out when O=C(O)c1cc(C#Cc2ccc(OCc3c(-c4c(Cl)cccc4Cl)noc3C3CC3)cc2Cl)cc(OC(F)(F)F)c1 [Compound I-39, 3-((2-chloro-4-((5-cyclopropyl-3-(2,6-dichlorophenyl)isoxazol-4-yl)methoxy)phenyl)ethynyl)-5-(trifluoromethoxy)benzoic acid] was run?
A: 200 to 1000 nM

Q: What about the Emax of the same molecule?
A: 85%

Q: With CCCCc1nc2cc(C#Cc3ccc(OCc4c(-c5c(Cl)cccc5Cl)noc4C4CC4)cc3Cl)cc(C(=O)O)c2o1 [Compound I-111, 2-butyl-5-((2-chloro-4-((5-cyclopropyl-3-(2,6-dichlorophenyl)isoxazol-4-yl)methoxy)phenyl)ethynyl)benzo[d]oxazole-7-carboxylic acid] as the molecule, how does the EC50 read?
A: 20 to 60 nM

Q: And the Emax?
A: 98%

Q: What does the source list for O=C(O)c1cc(C#Cc2ccc(OCc3c(-c4c(Cl)cccc4Cl)noc3C3CC3)cc2Cl)cc(CNCC(F)(F)F)c1 [Compound I-46, 3-((2-chloro-4-((5-cyclopropyl-3-(2,6-dichlorophenyl)isoxazol-4-yl)methoxy)phenyl)ethynyl)-5-(((2,2,2-trifluoroethyl)amino)methyl)benzoic acid]?
A: EC50: 60 to 200 nM; Emax: 99%

Q: Which results are given for CC(C)c1nc2c(C(=O)O)cc(C#Cc3ccc(OCc4c(-c5c(Cl)cccc5Cl)noc4C4CC4)cc3Cl)cc2o1 [Compound I-115, 6-((2-chloro-4-((5-cyclopropyl-3-(2,6-dichlorophenyl)isoxazol-4-yl)methoxy)phenyl)ethynyl)-2-isopropylbenzo[d]oxazole-4-carboxylic acid]?
A: EC50: 20 to 60 nM; Emax: 97%

Q: How did the EC50 turn out when O=C(O)c1cc(Cl)cc(C#Cc2ccc(OCc3c(-c4c(Cl)cccc4Cl)noc3C3CC3)cc2Cl)c1 [Compound I-27, 3-chloro-5-((2-chloro-4-((5-cyclopropyl-3-(2,6-dichlorophenyl)isoxazol-4-yl)methoxy)phenyl)ethynyl)benzoic acid] was run?
A: 20 to 60 nM

Q: And the Emax?
A: 91%

Q: What does the source list for O=C(O)c1cc(C#Cc2ccc(OCc3c(-c4c(Cl)cccc4Cl)noc3C3CC3)cc2Cl)cc(CNC2CC2)c1 [Compound I-42, 3-((2-chloro-4-((5-cyclopropyl-3-(2,6-dichlorophenyl)isoxazol-4-yl)methoxy)phenyl)ethynyl)-5-((cyclopropylamino)methyl)benzoic acid]?
A: EC50: 20 to 60 nM; Emax: > 100%

Q: What does the source list for O=C(O)c1cc(C#Cc2ccc(OCc3c(-c4c(Cl)cccc4Cl)noc3C3CC3)cc2Cl)cc2nccnc12 [Compound I-108, 7-((2-chloro-4-((5-cyclopropyl-3-(2,6-dichlorophenyl)isoxazol-4-yl)methoxy)phenyl)ethynyl)quinoxaline-5-carboxylic acid]?
A: EC50: 20 to 60 nM; Emax: 98%

Q: For O=C(O)c1cc(C#Cc2ccc(OCc3c(-c4c(Cl)cccc4Cl)noc3C3CC3)cc2Cl)cc(C(F)(F)F)c1 [Compound I-31, 3-((2-chloro-4-((5-cyclopropyl-3-(2,6-dichlorophenyl)isoxazol-4-yl)methoxy)phenyl)ethynyl)-5-(trifluoromethyl)benzoic acid], which EC50 is on record?
A: 20 to 60 nM

Q: What about the Emax of the same molecule?
A: > 100%

Q: CCc1nc2cc(C#Cc3ccc(OCc4c(-c5c(Cl)cccc5Cl)noc4C4CC4)cc3Cl)cc(C(=O)O)c2o1 [Compound I-104, 5-((2-chloro-4-((5-cyclopropyl-3-(2,6-dichlorophenyl)isoxazol-4-yl)methoxy)phenyl)ethynyl)-2-ethylbenzo[d]oxazole-7-carboxylic acid] was tested. Which EC50 did it give?
A: ≤ 20 nM

Q: What about the Emax of the same molecule?
A: 94%

Q: How did the EC50 turn out when CC(=O)Nc1cc(C#Cc2ccc(OCc3c(-c4c(Cl)cccc4Cl)noc3C3CC3)cc2Cl)cc(C(=O)O)c1 [Compound I-73, 3-acetamido-5-((2-chloro-4-((5-cyclopropyl-3-(2,6-dichlorophenyl)isoxazol-4-yl)methoxy)phenyl)ethynyl)benzoic acid] was run?
A: 200 to 1000 nM

Q: And the Emax?
A: > 100%

Q: What does the source list for O=C(Nc1cc(C#Cc2ccc(OCc3c(-c4c(Cl)cccc4Cl)noc3C3CC3)cc2Cl)cc(C(=O)O)c1)OC1CC1 [Compound I-76, 3-((2-chloro-4-((5-cyclopropyl-3-(2,6-dichlorophenyl)isoxazol-4-yl)methoxy)phenyl)ethynyl)-5-((cyclopropoxycarbonyl)amino)benzoic acid]?
A: EC50: ≤ 20 nM; Emax: > 100%

Q: Which EC50 does the source give for NS(=O)(=O)Nc1cccc(C#Cc2ccc(OCc3c(-c4c(Cl)cccc4Cl)noc3C3CC3)cc2Cl)c1 [Compound I-14, N-(3-((2-chloro-4-((5-cyclopropyl-3-(2,6-dichlorophenyl)isoxazol-4-yl)methoxy)phenyl)ethynyl)phenyl)sulfamide] here?
A: 200 to 1000 nM

Q: What about the Emax of the same molecule?
A: 96%

Q: Which results are given for Cc1c(N)cc(C#Cc2ccc(OCc3c(-c4c(Cl)cccc4Cl)noc3C3CC3)cc2Cl)cc1C(=O)O [Compound I-71, 3-amino-5-((2-chloro-4-((5-cyclopropyl-3-(2,6-dichlorophenyl)isoxazol-4-yl)methoxy)phenyl)ethynyl)-2-methylbenzoic acid]?
A: EC50: 200 to 1000 nM; Emax: > 100%

Q: For CCNC(=O)Nc1cc(C#Cc2ccc(OCc3c(-c4c(Cl)cccc4Cl)noc3C3CC3)cc2Cl)cc(C(=O)O)c1 [Compound I-72, 3-((2-chloro-4-((5-cyclopropyl-3-(2,6-dichlorophenyl)isoxazol-4-yl)methoxy)phenyl)ethynyl)-5-(3-ethylureido)benzoic acid], which EC50 is on record?
A: 200 to 1000 nM

Q: And the Emax?
A: > 100%

Q: CN(C(=O)OC(C)(C)C)c1cc(C#Cc2ccc(OCc3c(-c4c(Cl)cccc4Cl)noc3C3CC3)cc2Cl)cc(C(=O)O)c1 [Compound I-78, 3-((tert-butoxycarbonyl)(methyl)amino)-5-((2-chloro-4-((5-cyclopropyl-3-(2,6-dichlorophenyl)isoxazol-4-yl)methoxy)phenyl)ethynyl)benzoic acid] was tested. Which EC50 did it give?
A: 20 to 60 nM

Q: What about the Emax of the same molecule?
A: 89%

Q: What does the source list for O=C(O)c1cc(C#Cc2ccc(OCc3c(-c4c(Cl)cccc4Cl)noc3C3CC3)cc2Cl)cc2nc(C3CC3)oc12 [Compound I-110, 5-((2-chloro-4-((5-cyclopropyl-3-(2,6-dichlorophenyl)isoxazol-4-yl)methoxy)phenyl)ethynyl)-2-cyclopropylbenzo[d]oxazole-7-carboxylic acid]?
A: EC50: ≤ 20 nM; Emax: 92%

Q: Which EC50 does the source give for O=C(O)c1cccc(C#Cc2ccc(OCc3c(-c4ccccc4OC(F)(F)F)noc3C3CC3)cc2Cl)c1 [Compound I-88, 3-((2-chloro-4-((5-cyclopropyl-3-(2-(trifluoromethoxy)phenyl)isoxazol-4-yl)methoxy)phenyl)ethynyl)benzoic acid] here?
A: 200 to 1000 nM

Q: And the Emax?
A: 97%

Q: How did the EC50 turn out when O=C(O)c1cccc(C#Cc2c(F)cc(OCc3c(-c4c(Cl)cccc4Cl)noc3C3CC3)cc2Cl)c1 [Compound I-70, 3-((2-chloro-4-((5-cyclopropyl-3-(2,6-dichlorophenyl)isoxazol-4-yl)methoxy)-6-fluorophenyl)ethynyl)benzoic acid] was run?
A: 60 to 200 nM

Q: What about the Emax of the same molecule?
A: > 100%
